# In a melting point compilation (Tetko et al.; mined from patent text by program, amines drawn as free bases though some values may be those of a salt):
row,Compound,melting point [°C]
1,Cc1nc(-n2ccc(O)cc2=O)sc1C(=O)NCc1ccc(F)cc1,280 to 282
2,CCOC(=O)C=Cc1ccc2cc(C=CC(=O)OCC)ccc2c1,150 to 151
3,CC(=O)OC1CCCC(n2cnc3cc(Cl)c(Cl)cc32)C1OC(C)=O (centres undefined),163 to 165
4,O=C(Cc1ccc(Cl)c(Cl)c1)N1CCc2occc2C1CO (centres undefined),155 to 156
5,CCCCCC(O)CNCCCCCCNCC(O)CCCCC (centres undefined),131 to 134
6,Cn1cc(Br)cc(Nc2cc3c(cn2)CCN(C(=O)OC(C)(C)C)C3)c1=O,126 to 128
7,CSc1nc(O)cc(OC(F)F)n1,236 to 237
8,COc1ccc2c(CBr)c(F)ccc2c1C(F)(F)F,97 to 100
9,COCc1nc(N)nc(N)c1-c1cc(Cl)cc(Cl)c1Cl,265 to 268
10,COC(=O)C(=O)C12CC3CC(CC(O)(C3)C1)C2,164 to 166
11,COC(=O)c1ccc(CC(C)NCC(O)c2ccc(O)c(CO)c2)cc1C (centres undefined),82 to 85
12,C#CCOC(=O)Oc1ccc(C(=O)c2ccc(OC(=O)OCC#C)cc2)cc1,104 to 106
13,CS(=O)(=O)c1ccc(/C(=C\C2CCCC2)C(=O)O)cc1,200 to 202
14,COC=C(C(=O)OC)C1=C(C=Cc2ccccc2)CCC1,107
15,CCCCc1cc(=O)c2ccccc2[nH]1,140
16,O=C1c2ccccc2CN1c1ccccc1CCN1CCN(c2nsc3ccccc23)CC1,208
17,Cn1cncc1C(O)(c1ccc(C=O)cc1)c1ccc2c(c1)c(-c1cccc(Cl)c1)nc1nnnn12 (centres undefined),170
18,Cc1cc2c(=O)[nH][nH]c(=O)c2n1CC(C)C,278 to 282
19,CC(C)(C)c1cc(-c2c(S)ssc2=S)cc(C(C)(C)C)c1O,182
20,O=C1NC(=O)C(Cc2ccc(CCNCC(O)COc3ccc(OCc4ccccc4)cc3)cc2)S1 (centres undefined),51 to 53
21,Sc1nc2cc(N3CCNCC3)ccc2[nH]1,260 to 261
22,CNc1ccc(C(=O)Nc2cccc(-c3nc(NC)nc4cc(OC)c(OC)cc34)c2)cn1,193 to 195
23,CNC(=S)n1nc(NC(=O)c2ccccc2)nc1N,> 300

row,Compound,melting point [°C]
1,Cc1cc(-c2cnn3c(C(F)(F)F)cc(-c4ccc(C(F)(F)F)c(OCC(F)(F)F)c4)nc23)cc(C)n1,245
2,COC(=O)c1cnn(C)c1C(=O)Nc1ccn2nc(-c3cccnc3)nc2c1,228 to 231
3,COc1ccc(-c2cccc(-c3nc(-c4ccc(C(F)(F)F)cc4)oc3C)c2)cc1,93 to 94
4,O=C(NC1CCOc2cc(C(=O)Nc3ccncc3)ccc21)OCc1ccccc1 (centres undefined),226 to 228
5,Cc1ccc(S(=O)(=O)ON=C2CCCc3occ(C(=O)O)c32)cc1,155 to 165
6,CCc1nc(C(C)(C)O)c(C(=O)OCc2oc(=O)oc2C)n1Cc1ccc(-c2ccccc2-c2nnnn2C(c2ccccc2)(c2ccccc2)c2ccccc2)cc1,145
7,Cc1ccc(S(=O)(=O)N(c2ccc(Cl)cc2[N+](=O)[O-])C2CC2)cc1,98.5 to 100
8,COc1cc2c(cc1OC)C(c1ccc([N+](=O)[O-])cc1)NN(C1=NC(=O)C(C)S1)C(C)C2 (centres undefined),213 to 214
9,OCc1csc(Nc2ccccc2)n1,115 to 118
10,Cc1cc2c(cc1-c1c[nH]c(C=CC(=O)O)c1)C(C)(C)CCC2(C)C,245 to 246
11,COc1ccc(C(=O)Nc2ccccc2)cc1NC(=S)Nc1ccccc1C,172 to 174
12,O=C(O)c1c([N+](=O)[O-])cccc1[N+](=O)[O-],200 to 202
13,CCOC(=O)Cc1nc(-c2ccc(C)cc2)oc1-c1ccco1,84 to 85
14,COc1ccc(C(=O)N[C@H]2CCN(C)C[C@H]2c2ccccc2)cc1OC (relative stereo),153 to 155
15,CCN(CC)CCn1cc(C(=O)NCc2ccc(Cl)cc2)c(=O)c2cc(C#CCO)ccc21,145 to 148
16,Cc1nn(C)c2c(=O)n(-c3ccc(Cl)c(Cl)c3)cnc12,250 to 251
17,CC12CCC3c4ccc(O)cc4C(CC(=O)O)CC3C1CC(O)C2O (centres undefined),259 to 262
18,c1cc2ccc3nnsc3c2cn1,150 to 153
19,Clc1ccc2c(c1)CCc1cccnc1C2=C1CCN(Cc2cccnc2)CC1,115
20,C[Si](C)(C)C#Cc1cc(F)cnc1N,65
21,COc1ccccc1-c1cc(F)cc2c1O[C@@H](CN)CC2,100
22,Cc1nc(N2CCOCC2)c2c(n1)N(CC(O)CO)C(=O)CO2 (centres undefined),153 to 155
23,NS(=O)(=O)C1(c2cnn(CC(F)=C(F)F)c(=O)c2-c2ccc(F)cc2)C=CC=CC1 (centres undefined),173 to 175

row,Compound,melting point [°C]
1,CNC(=O)[C@@H]1CCC[C@@H]1Nc1nc(Nc2ccc3c(c2)CCN(CCOC)CC3)ncc1Cl (relative stereo),176
2,O=C(CCCO)N1CCCCC1,31 to 33
3,OC1CSC(Oc2cccnc2)C(O)C1O (centres undefined),216
4,C#CC1(O)CCC2C3CCC4=CC(=O)CCC4C3C(=CF)CC21CC (centres undefined),169 to 180
5,Cn1cc(-c2ncc(-c3ccc4cc(OCc5nnn[nH]5)ccc4c3)o2)c2ccccc21,254 to 256
6,c1cc(N2CCNCC2)c2nccnc2c1,106 to 108
7,CC(=O)Oc1c(Cl)cc(Cl)cc1C1(OC(C)=O)C(=O)c2ccccc2C1=O,178 to 180
8,COc1cc(C(O)CS(C)(=O)=O)cc(OC)c1N(C)C (centres undefined),147 to 148
9,CCCCCCCCc1cc2c(s1)NC(=O)CN=C2c1ccccc1OC,128 to 130
10,CN(Cc1ccc(NC(=O)C2=Cc3cc(-c4ccc(Cl)cc4)ccc3S(=O)(=O)CC2)cc1)C1CCOCC1,247 to 250
11,CC(C)C(=O)N(O)C(C)c1cc(C(C)(C)C)c(O)c(C(C)(C)C)c1 (centres undefined),147 to 148
12,CCOc1ccc(-c2nc(OC)ccc2N2CCC(=O)N(c3ccc(OC)cc3)CC2)cc1C,136 to 138
13,CCc1nnc2c(NC3CCC3)nc3ccccc3n12,215 to 217
14,Cn1c(C(F)(F)F)cc(=O)n(-c2ccc(Cl)c(C=CC(=O)OCC(F)(F)F)c2)c1=O,170 to 172
15,CN1CCN(c2cc(N)ccc2Br)CC1,120 to 122
16,CCC(Oc1cccc(C(F)(F)F)c1)C(=O)OC1CC(O)C=C2C=CC(C)C(CCC3CC(O)CC(=O)O3)C21 (mixture of isomers),135 to 137
17,CC(C)C[C@@H](CO)NC(=O)N1C(=O)C(OC(=O)N2CCN(c3ccncc3)CC2)(c2ccccc2OC(C)C)c2cc(Cl)ccc21 (some centres undefined),160 to 164
18,CC(C)(C)OC(=O)N1CCC(c2cc(F)ccc2F)(S(=O)(=O)c2ccc(Cl)cc2)CC1,101 to 106
19,CC1CCN2C(=N1)C(=O)c1cc(S(=O)(=O)N3CCCC3)ccc12 (centres undefined),152 to 153
20,Nc1nc(Nc2ccc([N+](=O)[O-])cc2)sc1C(=O)c1ccccc1[N+](=O)[O-],266 to 268
21,C[C@H](NC(=O)c1c[nH]c2ncc(-c3ccc(C(=O)NCc4cccc(C#N)c4)s3)nc12)C(C)(C)C,171 to 174
22,CCCCc1nc2cccnc2n1Cc1ccc2c(Cl)c(C(=O)O)sc2c1,> 260
23,Cc1ccc(Cl)cc1N1CCCN(CC(C)C)C1=S,96 to 98
